Results from paper PMC3336937 (2012).

Molecular target: T1, KcsA (Streptomyces lividans, UniProt P0A334)
T1 sequence (P0A334 1-160): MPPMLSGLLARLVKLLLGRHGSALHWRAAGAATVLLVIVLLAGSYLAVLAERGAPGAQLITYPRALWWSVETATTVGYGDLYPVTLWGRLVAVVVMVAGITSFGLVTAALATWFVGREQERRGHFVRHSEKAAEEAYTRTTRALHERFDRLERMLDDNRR
Test: Trp fluorescence quenching, purified reconstituted wild-type KcsA
Format: binding

- Trp fluorescence quenching, purified reconstituted wild-type KcsA; binding const: 0.67 ± 0.04
Compound: CCCCCCCCC(Br)C(Br)CCCCCCCC(=O)O (stereo not shown) [BrSA, 9,10-dibromostearic acid]
